Data taken from ChEMBL document CHEMBL5365479, “Development of Potent and Selective Coactivator-Associated Arginine Methyltransferase 1 (CARM1) Degraders” (J Med Chem, 2023).

Test system: MCF-10A
Test: Cytotoxicity against human MCF-10A cells assessed as reduction in cell viability at 0.5 uM incubated for 7 days by high contrast bright field microscopic analysis
Type: toxicity, cell-based
Details: 168 h, time 7 day

In the case of `CNCCN1CCC(c2cc(CN(C)C(=O)c3cccc(Oc4ccc(OCC(=O)N5CCC(CN6CCC(CN7CCN(CC(=O)N[C@H](C(=O)N8C[C@H](O)C[C@H]8C(=O)N[C@@H](C)c8ccc(-c9scnc9C)cc8)C(C)(C)C)CC7)CC6)CC5)cc4)c3)ccn2)CC1`, the Activity is reported as “Non-Toxic”.
